The target of the data set is DGAT2. Particulars: ASO.

“And” between values parts separate entries of the source, which are not always exact repeats. Equal entries are not always repeated. After the bases stand the sugars from the 5' end (letter, count) and the backbone: PS all phosphorothioate, else s phosphorothioate and o phosphodiester by linkage. Methylation of C is not given here. e = 2'-O-(2-methoxyethyl) (MOE); d = 2'-deoxy (DNA)

The text below walks through data of the OligoGym collection.

“TGGTGGTCAGCAGGTTGTGT (sugars e5 d10 e5, PS)”: the target mRNA inhibition (HepG2, 0.12 µM) came to 51%.

For the sequence “GATGCTCCAGGTGGGCCAGA (sugars e5 d10 e5, PS)”, the target mRNA inhibition was 52% (HepG2, 2.5 µM) and 82% (HepG2, 10 µM).

As for “CTGCGCGATTCACTGAGGAC (sugars e5 d10 e5, PS)”, the target mRNA inhibition turned out to be 78% (HepG2, 2.5 µM) and 71% (HepG2, 10 µM).

As for “TCAGCAGGTTGTGTGTCTTC (sugars e5 d10 e5, PS)”, the target mRNA inhibition is, setting by setting: (HepG2, 0.12 µM) 56%; (HepG2, 2.5 µM) 3%.

“AATTTCTTTTAAATAACCCA (sugars e5 d10 e5, PS)”: under “HepG2, 0.12 µM”, the target mRNA inhibition is 0%.

In the case of “CAGGACCCACTGGAGCACTG (sugars e2 d13 e5, PS)”, the target mRNA inhibition (HepG2, 0.12 µM) was found to be 78%.

Take “ACCATAATCTGCACAGGTTC (sugars e5 d10 e5, PS)”: the target mRNA inhibition came out at 62% (HepG2, 2.5 µM) and 84% (HepG2, 10 µM).

Regarding “GCTGTGATGACTTCCCAGGG (sugars e5 d10 e5, PS)”, the target mRNA inhibition runs as follows: (HepG2, 2.5 µM) 75%; (HepG2, 10 µM) 86%.

“GTCAAACACCAGCCAAGTGA (sugars e5 d10 e5, PS)” registered a target mRNA inhibition (HepG2, 0.12 µM) of 15%.

For the setting “HepG2, 0.12 µM”, “GACCCACTGGAGCACTGAGA (sugars e5 d10 e5, PS)” registered a target mRNA inhibition of 69%.

In the case of “GTGCTCTCCAACTCCTCCCC (sugars e5 d10 e5, PS)”, the target mRNA inhibition (HepG2, 0.12 µM) was 34%.

For the sequence “GGGCAAAAAGTGAATCATCT (sugars e5 d10 e5, PS)”, the target mRNA inhibition is, setting by setting: (HepG2, 2.5 µM) 39%; (HepG2, 10 µM) 72%.

Under “HepG2, 0.12 µM”, “TCACCAGGGCCTCCATGTAC (sugars e3 d14 e3, PS)” yielded a target mRNA inhibition of 68%.

Take “TAGGCTTTAGAAATTCACCA (sugars e5 d10 e5, PS)”: the target mRNA inhibition is, setting by setting: (HepG2, 2.5 µM) 71% and 72% and 76%; (HepG2, 10 µM) 89% and 82% and 91%.

With “CCTAAGGAGTGAGGGTATCT (sugars e5 d10 e5, PS)”, the target mRNA inhibition is 39% and 50% (HepG2, 2.5 µM); 87% and 92% (HepG2, 10 µM).

Regarding “CTGACACACAATATCCATGG (sugars e5 d10 e5, PS)”, the target mRNA inhibition (HepG2, 2.5 µM) is 76% and 57%; the target mRNA inhibition (HepG2, 10 µM) is 93% and 85%.

As to “GGGTTATTGCAACCACTAGG (sugars e5 d10 e5, PS)”, the target mRNA inhibition came out at 74% (HepG2, 2.5 µM) and 80% (HepG2, 10 µM).

As for “AAAACTTAGGCATGCTTCCT (sugars e5 d10 e5, PS)”, the target mRNA inhibition reads like this: (HepG2, 2.5 µM) 53%; (HepG2, 10 µM) 83%.

For “GCCTGGACAAGTCCTGCCCA (sugars e5 d10 e5, PS)”, the target mRNA inhibition is, setting by setting: (HepG2, 0.12 µM) 70% and 86%; (HepG2, 20 µM) 81% and 88%.

In the case of “AGGTAAGGCCGTATGCCTGG (sugars e3 d14 e3, PS)”, the target mRNA inhibition (HepG2, 0.12 µM) came to 67%.

Under “HepG2, 0.12 µM”, “TCAAACCTAGGTTCAGACTT (sugars e5 d10 e5, PS)” yielded a target mRNA inhibition of 47%.

For “TCCATTTTTTACCCAACCTT (sugars e5 d10 e5, PS)”, the target mRNA inhibition by setting is: (HepG2, 2.5 µM) 56% and 49%; (HepG2, 10 µM) 93% and 94%.

Consider “ATTCATCTTTCCAGATCCGG (sugars e5 d10 e5, PS)”, for which the target mRNA inhibition is, setting by setting: (HepG2, 2.5 µM) 92%; (HepG2, 10 µM) 88%.

Sequence “GCAGCCTGGACAAGTCCTGC (sugars e5 d10 e5, PS)” had a target mRNA inhibition (HepG2, 0.12 µM) of 70%.

In the case of “GTTCTTTTGGAAGGGTGGAG (sugars e5 d10 e5, PS)”, for the setting “HepG2, 0.12 µM”, the target mRNA inhibition turned out to be 52%.

In the case of “TCAGAGACTCAGCCGCACCC (sugars e5 d10 e5, PS)”, under “HepG2, 0.12 µM”, the target mRNA inhibition was 43% and 55%.

“ATGCCTGAGGGCAGCAGTGT (sugars e5 d10 e5, PS)” came in with a target mRNA inhibition (HepG2, 0.12 µM) of 45%.

In turn, “GAGAAGAGGTCCTGGAGGGC (sugars e5 d10 e5, PS)” showed a target mRNA inhibition (HepG2, 0.12 µM) of 10%.

For the sequence “TAACCCACAGACACCCATGA (sugars e5 d10 e5, PS)”, the target mRNA inhibition (HepG2, 0.12 µM) is 14%.

For the sequence “CTATAGAATCAGACAGACCT (sugars e5 d10 e5, PS)”, the target mRNA inhibition (HepG2, 2.5 µM) amounted to 31% and the target mRNA inhibition (HepG2, 10 µM) came out at 78%.

Take “AGCCTGGATGGTGGTTGCAA (sugars e5 d10 e5, PS)”: the target mRNA inhibition was determined as 73% (HepG2, 2.5 µM) and 78% (HepG2, 10 µM).

For the setting “HepG2, 0.12 µM”, “ACACCAGGATCTCAGTCACT (sugars e5 d10 e5, PS)” gave a target mRNA inhibition of 42%.

For the sequence “ATGAGCTCTCAAGTCTTCCT (sugars e5 d10 e5, PS)”, the target mRNA inhibition is, setting by setting: (HepG2, 2.5 µM) 67%; (HepG2, 10 µM) 93%.

“GTGATGACTTCCCAGGG (sugars e3 d10 e4, PS)”: the target mRNA inhibition (HepG2, 2.5 µM) was 66% and 82%; the target mRNA inhibition (HepG2, 10 µM) is 67% and 84%.

For the sequence “ATAGCATTGCCACTCCCATT (sugars e3 d14 e3, PS)”, the target mRNA inhibition (HepG2, 0.12 µM) amounted to 71%.

For the sequence “GCGATTCACTGAGGACC (sugars e3 d10 e4, PS)”, the target mRNA inhibition (HepG2, 10 µM) is 68% and 86%.

Under “HepG2, 0.12 µM”, “CAGCAGGTTGTGTGTCTTCA (sugars e2 d13 e5, PS)” yielded a target mRNA inhibition of 57%.

As for “GGCTGAGTCTGTGCTGCATC (sugars e5 d10 e5, PS)”, the target mRNA inhibition is, setting by setting: (HepG2, 2.5 µM) 85% and 65%; (HepG2, 10 µM) 81%.
